# Assays:
# Caco-2 cells [1] = experiment: Caco-2 cell viability with ascorbic acid (fluorescent probes); assay type: cell-based; conditions: 0, 5, 25, or 50 mM ascorbic acid for 240 min; cells propagated 14 days
# Experimental: FIG. 5 depicts a graph illustrating the viability over time of cells incubated with various solutions. Caco-2 cells were propagated in T-75 tissue culture flasks for 14 days. The cells were then incubated with either 0, 5, 25, or 50 mM ascorbic acid for 240 min. Fluorescent probes were used to determine viability.
# Experiments were performed to test the impact of various ascorbic acid concentrations on cell viability. Caco-2 cells were propagated in T-75 tissue culture flasks for 14 days. The cells were then incubated with either 0, 5, 25, or 50 mM ascorbic acid for 240 min. Fluorescent probes were used to determine viability.
# Caco-2 cells [2] = experiment: Caco-2 in vitro magnesium transport assay; conditions: for Magnesium transport with increasing treatment concentration: 0, 5, 10, 15, 20, and 25 mg Mg (ascorbate or chloride)
# Experimental: Caco-2 cells were used to model in vitro magnesium absorption of intestinal cells. […] Six different solutions, with magnesium and varying ratios of ascorbate were tested. Each solution comprised 20 mM of magnesium. Cells were exposed to one of the six solutions for 4 hours, then the basal media was analyzed for magnesium, using a colorimetric test.
# Various magnesium solutions were tested to determine their impact on magnesium transport: magnesium ascorbate, magnesium bisglycinate, magnesium orotate, magnesium threonate, and magnesium malate (trihydrate and hexahydrate; abbreviated MgM3H20 or MgM6H20 respectively in FIG. 2). […] (see FIG. 2)
# Six different treatment concentrations were tested: 0, 5, 10, 15, 20, and 25 mg Mg (ascorbate or chloride).
molecule,measurement,setting,value
O=C1O[C@H]([C@@H](O)CO)C(O)=C1O [ascorbic acid],Cell viability,Caco-2 cells [1],no conclusive evidence that ascorbic acid kills the cells
"[Cl-].[Cl-].[Mg+2] [magnesium chloride, reference compound]",Magnesium transport with increasing treatment concentration,Caco-2 cells [2]; FIG. 3,"increased magnesium transport, in a linear fashion"
magnesium ascorbate,Magnesium transport with increasing treatment concentration,Caco-2 cells [2]; FIG. 3,significant jump in magnesium transport between the 10 mM treatment and the 15 mM treatment
same,Magnesium transport compared with magnesium chloride at any given concentration tested,"Caco-2 cells [2]; 0, 5, 10, 15, 20, and 25 mg Mg, FIG. 3",greater magnesium transport than magnesium chloride
same,Magnesium transport rate compared with other magnesium solutions,"Caco-2 cells [2]; vs magnesium bisglycinate, orotate, threonate, malate (trihydrate and hexahydrate), FIG. 2",statistically significant higher transport rate than any other magnesium solution tested

# Source: patent US12496289B2, “Methods of increasing magnesium bioavailability and absorption” (Balchem Corporation, priority 2020, dated 2025)
